The nature of data set [1]: Hygroscopicity studies (DVS moisture sorption/desorption). Conditions: for solid-state transformation after full adsorption/desorption cycle (XRPD): DVS, 0% to 95% RH and back; for mass change of the starting mass of the sample: RH increased from about 0% to about 95% RH, about 25 °C; for hygroscopicity: moisture sorption analysis, 0% to 95% RH. In kind it is physicochemical. The protocol:
Hygroscopicity studies. The hygroscopicity of various solid forms was studied using a Surface Measurement Systems DVS instrument. Typically a sample size of between about 10-50 mg was loaded into the DVS instrument sample pan and the sample was analyzed on a DVS automated sorption analyzer at about 25 °C. The relative humidity was increased in increments of about 10% from about 0% to about 95% RH. The relative humidity was then decreased in a similar manner to accomplish a full adsorption/desorption cycle. The mass was recorded at periodic intervals throughout the experiment.

Data set [2] can be described thus: Solid form stability studies (XRPD). The data set is classed as physicochemical. The protocol: Stability Studies. The stabilities of Forms A, B, C and D were studied by exposing the solid samples to the stress condition of 40 °C / 75% RH for four weeks. Moreover, the stabilities of Forms A, B, C and D in different solvents were studied by equilibration in different solvents at 40 °C for four weeks. The slurries then were filtered and dried in the air. Solid samples obtained from the stability experiments were analyzed by XRPD and DSC.

A short description of data set [3]: Solid form interconversion studies (slurry, XRPD). In kind it is physicochemical. Particulars: EQ in acetone:ethanol (1:1) at 25 °C, at least 2 days. The protocol:
Interconversion Studies. Interconversion experiments were performed by making slurries of a solid form in a saturated solvent. The slurries were agitated for at least 2 days at about 25 °C. The saturated solution was removed by filtration and the solid was dried in the air.

Data set [4] in a line: Compression studies (2000 psi, XRPD). Particulars: 2000 psi for at least one minute.
Setting [5] is: EQ in ethanol at 40 °C for 4 weeks.
Setting [6] is: EQ in heptane at 40 °C for 4 weeks.
Where [7] appears, read: EQ in toluene at 40 °C for 4 weeks.
Setting [8] is: EQ in water at 40 °C for 4 weeks.

SMILES strings stand for the structures. “Also recorded” adds a separate entry of the source.

As for `CCOc1cc(C(CS(C)(=O)=O)N2C(=O)c3cccc(NC(C)=O)c3C2=O)ccc1OC` (single isomer, unassigned; (+)) [Form A, (+)-2-[1-(3-ethoxy-4-methoxyphenyl)-2-methylsulfonylethyl]-4-acetylaminoisoindoline-1,3-dione], the “solid-state transformation after full adsorption/desorption cycle (XRPD)” value in data set [1] is listed as “none of the forms analyzed underwent substantial solid-state transformation”. The “mass change of the starting mass of the sample” value (“mass change” for short) in data set [1] is given as “about 0.4%”. Besides, the hygroscopicity result in data set [1] is given as “substantially nonhygroscopic”. Also, the “Analysis by XRPD (resulting form)” value is “stable” in data set [2] (40 °C / 75% RH, 4 weeks); “stable” in data set [2] (setting [5]); “stable” in data set [2] (setting [6]); “converts to Form C” in data set [2] (setting [7]); “stable” in data set [2] (setting [8]); “Form B” in data set [3]. Also, the “physical stability upon compression (XRPD)” value in data set [4] is reported as “substantially physically stable”.

For the molecule `CCOc1cc(C(CS(C)(=O)=O)N2C(=O)c3cccc(NC(C)=O)c3C2=O)ccc1OC` (single isomer, unassigned; (+)) [Form B, (+)-2-[1-(3-ethoxy-4-methoxyphenyl)-2-methylsulfonylethyl]-4-acetylaminoisoindoline-1,3-dione], the “solid-state transformation after full adsorption/desorption cycle (XRPD)” value in data set [1] is given as “none of the forms analyzed underwent substantial solid-state transformation”. The “mass change” value in data set [1] is reported as “about 0.6%”. In addition, in data set [1], the hygroscopicity entry is given as “substantially nonhygroscopic”. The “Analysis by XRPD (resulting form)” value in data set [2] (40 °C / 75% RH, 4 weeks) is “stable”; in data set [2] (setting [5]), “stable”; in data set [2] (setting [6]), “stable”; in data set [2] (setting [7]), “converts to Form C”; in data set [2] (setting [8]), “stable”. For the same molecule, in data set [4], the “physical stability upon compression (XRPD)” value is “substantially physically stable”.

On to `CCOc1cc(C(CS(C)(=O)=O)N2C(=O)c3cccc(NC(C)=O)c3C2=O)ccc1OC` (single isomer, unassigned; (+)) [Form F, (+)-2-[1-(3-ethoxy-4-methoxyphenyl)-2-methylsulfonylethyl]-4-acetylaminoisoindoline-1,3-dione], for which, in data set [1], the “solid-state transformation after full adsorption/desorption cycle (XRPD)” value is given as “none of the forms analyzed underwent substantial solid-state transformation”, the “mass change” value is on record as “about 0.2%” and the hygroscopicity result was “substantially nonhygroscopic”. Besides, the “Analysis by XRPD (resulting form)” value in data set [3] was “stable; also recorded: Form F”.

Take `CCOc1cc(C(CS(C)(=O)=O)N2C(=O)c3cccc(NC(C)=O)c3C2=O)ccc1OC` (single isomer, unassigned; (+)) [Form E, (+)-2-[1-(3-ethoxy-4-methoxyphenyl)-2-methylsulfonylethyl]-4-acetylaminoisoindoline-1,3-dione]: in data set [1], the “solid-state transformation after full adsorption/desorption cycle (XRPD)” value is “none of the forms analyzed underwent substantial solid-state transformation”, the “mass change” value is “about 5.1%” and the hygroscopicity entry is on record as “hygroscopic”. Further, the “Analysis by XRPD (resulting form)” value in data set [3] was “Form B”.

Turning to `CCOc1cc(C(CS(C)(=O)=O)N2C(=O)c3cccc(NC(C)=O)c3C2=O)ccc1OC` (single isomer, unassigned; (+)) [Form C, (+)-2-[1-(3-ethoxy-4-methoxyphenyl)-2-methylsulfonylethyl]-4-acetylaminoisoindoline-1,3-dione], the “solid-state transformation after full adsorption/desorption cycle (XRPD)” value in data set [1] is on record as “none of the forms analyzed underwent substantial solid-state transformation”. The “mass change” value in data set [1] is on record as “about 0.5%”. Further, the hygroscopicity entry in data set [1] is listed as “substantially nonhygroscopic”. For the same molecule, the “Analysis by XRPD (resulting form)” value is reported as “stable” in data set [2] (40 °C / 75% RH, 4 weeks); “stable” in data set [2] (setting [5]); “stable” in data set [2] (setting [6]); “stable” in data set [2] (setting [7]); “stable” in data set [2] (setting [8]); “Form C” in data set [3]. In addition, the “physical stability upon compression (XRPD)” value in data set [4] is reported as “substantially physically stable”.

Regarding `CCOc1cc(C(CS(C)(=O)=O)N2C(=O)c3cccc(NC(C)=O)c3C2=O)ccc1OC` (single isomer, unassigned; (+)) [Form G, (+)-2-[1-(3-ethoxy-4-methoxyphenyl)-2-methylsulfonylethyl]-4-acetylaminoisoindoline-1,3-dione], in data set [1], the “solid-state transformation after full adsorption/desorption cycle (XRPD)” value was “none of the forms analyzed underwent substantial solid-state transformation”, the “mass change” value was “about 0.4%” and the hygroscopicity result was “substantially nonhygroscopic”. Moreover, the “Analysis by XRPD (resulting form)” value in data set [3] is “converts to Form B”.

On to `CCOc1cc(C(CS(C)(=O)=O)N2C(=O)c3cccc(NC(C)=O)c3C2=O)ccc1OC` (single isomer, unassigned; (+)) [Form D, (+)-2-[1-(3-ethoxy-4-methoxyphenyl)-2-methylsulfonylethyl]-4-acetylaminoisoindoline-1,3-dione], for which the “solid-state transformation after full adsorption/desorption cycle (XRPD)” value in data set [1] is “none of the forms analyzed underwent substantial solid-state transformation”. Further, the “mass change” value in data set [1] was “about 1.5%”. In data set [1], the hygroscopicity entry was “slightly hygroscopic”. Besides, the “Analysis by XRPD (resulting form)” value in data set [2] (40 °C / 75% RH, 4 weeks) is recorded as “stable”; in data set [2] (setting [5]), “converts to Form B”; in data set [2] (setting [6]), “converts to Form B”; in data set [2] (setting [7]) it was “converts to Form C”; in data set [2] (setting [8]), “converts to Form B”; in data set [3], “Form B”. Also, in data set [4], the “physical stability upon compression (XRPD)” value is “substantially physically stable”.
